Test system: rat-tail collagen
Test: Glycation of collagen induced by glycoaldehyde, fluorescence of glycation products
Format: biochemical
Settings: 32 μl of aminoguanidine at 3.39 M, 14 days at 37° C.
Experimental: The study is carried out according to the operating protocol that follows.
On D0, samples to be tested are prepared in sterile hemolysis tubes: • a non-glycated collagen reference, containing • 1 ml of 3 mg/ml rat-tail collagen, • a glycated collagen reference, containing • 1 ml of 3 mg/ml rat-tail collagen, and • 0.3 ml of a glycoaldehyde solution at 143 mM, inducing the glycation reaction, • a positive reference, containing • 1 ml of 3 mg/ml of rat-tail collagen, • 0.3 ml of a solution of glycoaldehyde at 143 mM, inducing the glycation reaction, and • 32 μl of aminoguanidine at 3.39 M, inhibiting the glycation reaction. • product tests, containing • 1 ml of 3 mg/ml rat-tail collagen, • 0.3 ml of a solution of glycoaldehyde at 143 mM, inducing the glycation reaction, and • the active principle according to the invention at 1%, 2.5% and 5%.
The samples are incubated at 37° C. protected from light for 14 days.
On D14, the fluorescence emitted by the glycation products formed is measured with the aid of a spectrofluorimeter.

Structure (SMILES): N=C(N)NN [Positive reference, aminoguanidine]
- Fluorescence Value (glycated collagen reference 449): 189
- Effectiveness (%) (versus glycated collagen reference): −58%

Source: patent US8137707B2, “Method of obtaining an active ingredient increasing cutaneous cell and tissue longevity, active ingredients and compositions” (Societe Industrielle Limousine d'Application Biologique, …, priority 2006, dated 2012)
